Source: ChEMBL document CHEMBL1130991, “Synthesis and antibacterial activity of [6,5,5] and [6,6,5] tricyclic fused oxazolidinones” (Bioorg Med Chem Lett, 1998)
In brackets after ≈: the same amount, converted by molar mass.

Legend:
Assay type in all cases: functional
[1] = tested on: Streptococcus pneumoniae; test: Antibacterial activity against Streptococcus pneumoniae UC9912
[2] = tested on: Staphylococcus aureus; test: Antibacterial activity against Staphylococcus aureus UC12673
[3] = tested on: Bacteroides fragilis; test: Antibacterial activity against Bacteroides fragilis UC12199
[4] = tested on: Staphylococcus epidermidis; test: Antibacterial activity against Staphylococcus epidermidis UC30031UC
[5] = tested on: Enterococcus faecalis; test: Antibacterial activity against Enterococcus faecalis UC9217
[6] = tested on: Staphylococcus aureus; test: Antibacterial activity against Staphylococcus aureus UC9213
[7] = tested on: Mus musculus; test: (§1) Effective dose required to inhibit Staphylococcus aureus UC9213 in mice subjected to a lethal systemic infection (when administered orally); settings: po
[8] = tested on: Staphylococcus aureus; test: Effective dose required to inhibit Staphylococcus aureus UC9271 in mice subjected to a lethal systemic infection (when administered orally); settings: po
[9] = tested on: Bacteroides fragilis; test: Compound was evaluated for antibacterial activity against Bacteroides fragilis UC12199 UC (Upjohn Culture)
[10] = tested on: Staphylococcus aureus; test: as §1; settings: po
[11] = tested on: Mus musculus; test: Compound was evaluated for antibacterial activity against Staphylococcus aureus UC9213 ((methicillin susceptible) in mice administered orally; settings: po

Compound | MIC [1] [mg/L] | MIC [2] [mg/L] | MIC [3] [mg/L] | MIC [4] [mg/L] | MIC [5] [mg/L] | MIC [6] [mg/L] | ED50 [7] [mg/kg] | ED50 [8] [mg/kg] | MIC [9] [mg/L] | ED50 [10] [mg/kg] | ED50 [11] [mg/kg]
CC(=O)NC[C@@H]1OC(=O)N2c3ccc(S(C)(=O)=O)cc3C[C@@H]12 | 16 (≈ 49.3 µM) | 32 (≈ 98.7 µM) | > 32 | 64 (≈ 197 µM) | 64 (≈ 197 µM) | 64 (≈ 197 µM) | – | – | – | – | –
CC(=O)NC[C@@H]1OC(=O)N2c3ccc(-c4cccnc4)cc3CC[C@H]12 | > 64 | > 64 | > 32 | > 64 | > 64 | > 64 | – | – | – | – | –
CC(=O)NC[C@@H]1OC(=O)N2c3ccc(S(N)(=O)=O)cc3C[C@@H]12 | > 64 | > 64 | > 32 | > 64 | > 64 | > 64 | – | – | – | – | –
CC(=O)NC[C@@H]1OC(=O)N2c3ccc(C(C)=O)cc3C[C@@H]12 | – | – | – | 8 (≈ 27.7 µM) | 16 (≈ 55.5 µM) | 8 (≈ 27.7 µM) | 39.5 | – | – | – | –
CC(=O)NC[C@@H]1OC(=O)N2c3ccc(-c4cccnc4)cc3CC[C@@H]12 | 16 (≈ 47.4 µM) | 16 (≈ 47.4 µM) | > 32 | 16 (≈ 47.4 µM) | 32 (≈ 94.8 µM) | 32 (≈ 94.8 µM) | – | – | – | – | –
CC(=O)NC[C@@H]1OC(=O)N2c3ccc(C(C)=O)cc3CC[C@@H]12 | > 16 | > 16 | > 16 | > 16 | > 16 | > 16 | – | – | – | – | –
CC(=O)NC[C@@H]1OC(=O)N2c3ccc(-c4cccnc4)cc3C[C@@H]12 | – | 2 (≈ 6.19 µM) | 2 (≈ 6.19 µM) | 2 (≈ 6.19 µM) | 2 (≈ 6.19 µM) | 4 (≈ 12.4 µM) | 9.4 | 4.4 | – | – | –
CC(=O)NC[C@@H]1OC(=O)N2c3ccc(S(=O)(=O)N4CCCCC4)cc3C[C@@H]12 | > 64 | > 64 | > 32 | > 64 | > 64 | > 64 | – | – | – | – | –
CC(=O)NC[C@@H]1OC(=O)N2c3ccc(S(=O)(=O)NC4CCCC4)cc3C[C@@H]12 | > 64 | > 64 | > 32 | > 64 | > 64 | > 64 | – | – | – | – | –
CC(=O)NC[C@@H]1OC(=O)N2c3ccc(S(=O)(=O)N4CCOCC4)cc3C[C@@H]12 | > 64 | > 64 | > 32 | > 64 | > 64 | > 64 | – | – | – | – | –
CC(=O)NC[C@@H]1OC(=O)N2c3ccccc3CC[C@H]12 | > 64 | > 64 | > 32 | > 64 | > 64 | > 64 | – | – | – | – | –
CC(=O)NC[C@@H]1OC(=O)N2c3ccc(C(C)=O)cc3CC[C@H]12 | > 16 | > 16 | > 16 | > 16 | > 16 | > 16 | – | – | – | – | –
CC(=O)NC[C@@H]1OC(=O)N2c3ccccc3C[C@H]12 | > 32 | > 32 | – | > 32 | > 32 | > 32 | – | – | > 32 | – | –
CC(=O)NC[C@@H]1OC(=O)N2c3ccc(-c4ccc(C#N)cc4)cc3C[C@@H]12 | 2 (≈ 5.76 µM) | 4 (≈ 11.5 µM) | 32 (≈ 92.1 µM) | 2 (≈ 5.76 µM) | 2 (≈ 5.76 µM) | 4 (≈ 11.5 µM) | 17.1 | – | – | – | –
CC(=O)NC[C@@H]1OC(=O)N2c3ccc(C(C)=O)cc3C[C@H]12 | > 16 | > 16 | > 16 | > 16 | > 16 | > 16 | – | – | – | – | –
CC(=O)NC[C@@H]1OC(=O)N2c3ccc(S(=O)(=O)Nc4ccccc4)cc3C[C@@H]12 | > 64 | > 64 | > 32 | > 64 | > 64 | > 64 | – | – | – | – | –

Compound | MIC [1] [mg/L] | MIC [2] [mg/L] | MIC [3] [mg/L] | MIC [4] [mg/L] | MIC [5] [mg/L] | MIC [6] [mg/L] | ED50 [7] [mg/kg] | ED50 [8] [mg/kg] | MIC [9] [mg/L] | ED50 [10] [mg/kg] | ED50 [11] [mg/kg]
CC(=O)NC[C@@H]1OC(=O)N2c3ccc(S(=O)(=O)NCc4ccccc4)cc3C[C@@H]12 | > 64 | > 64 | > 32 | > 64 | > 64 | > 64 | – | – | – | – | –
CC(=O)NC[C@@H]1OC(=O)N2c3ccccc3C[C@@H]12 | > 32 | > 32 | > 32 | > 32 | > 32 | > 32 | – | – | – | – | –
CC(=O)NC[C@@H]1OC(=O)N2c3ccc(-c4ccncc4)cc3C[C@@H]12 | – | – | 8 (≈ 24.7 µM) | – | 2 (≈ 6.19 µM) | – | – | 16.5 | – | 6.1 | –
CC(=O)NC[C@@H]1OC(=O)N2c3ccccc3CC[C@@H]12 | > 64 | > 64 | > 32 | > 64 | > 64 | > 64 | – | – | – | – | –
CC(=O)NC[C@@H]1OC(=O)N2c3ccc(N4CCOCC4)cc3C[C@@H]12 | 32 (≈ 96.6 µM) | 64 (≈ 193 µM) | > 16 | 32 (≈ 96.6 µM) | 128 (≈ 386 µM) | 64 (≈ 193 µM) | – | – | – | – | > 20
CC(=O)NC[C@@H]1OC(=O)N2c3ccc(-c4cncnc4)cc3C[C@@H]12 | – | 4 (≈ 12.3 µM) | 8 (≈ 24.7 µM) | 4 (≈ 12.3 µM) | 4 (≈ 12.3 µM) | 8 (≈ 24.7 µM) | 11.4 | – | – | – | –
CCNS(=O)(=O)c1ccc2c(c1)C[C@H]1[C@H](CNC(C)=O)OC(=O)N21 | > 64 | > 64 | > 32 | > 64 | > 64 | > 64 | – | – | – | – | –
CC(=O)NC[C@@H]1OC(=O)N2c3ccc(S(=O)(=O)N(C)C)cc3C[C@@H]12 | 64 (≈ 181 µM) | 64 (≈ 181 µM) | > 32 | 64 (≈ 181 µM) | > 64 | 64 (≈ 181 µM) | – | – | – | – | –
CC(=O)NC[C@@H]1OC(=O)N2c3ccc(S(=O)(=O)N(C)CCCO)cc3C[C@@H]12 | > 64 | > 64 | > 32 | > 64 | > 64 | > 64 | – | – | – | – | –
CC(=O)NC[C@H]1CN(c2ccc(N3CCOCC3)cc2)C(=O)O1 | 1 (≈ 3.13 µM) | 4 (≈ 12.5 µM) | 4 (≈ 12.5 µM) | 2 (≈ 6.26 µM) | 4 (≈ 12.5 µM) | 4 (≈ 12.5 µM) | – | – | – | – | –
CC(=O)NC[C@@H]1OC(=O)N2c3ccc(-c4cccnc4)cc3C[C@@H]12.Cl | 0.5 | 2 | 4 | 1 | 2 | 2 | 6 | – | – | – | –
CC(=O)NC[C@H]1CN(c2ccc(C(C)=O)cc2)C(=O)O1 (racemic) [DUP-721] | 2 (≈ 7.24 µM) | 4 (≈ 14.5 µM) | 8 (≈ 29 µM) | 4 (≈ 14.5 µM) | 8 (≈ 29 µM) | 2 (≈ 7.24 µM) | – | 18.1 | – | 9.4 | –
CC(=O)NCC1OC(=O)N2c3ccc(C(C)=O)cc3CC12 (single isomer, unassigned; (+)) | 4 (≈ 13.9 µM) | 4 (≈ 13.9 µM) | 4 (≈ 13.9 µM) | 2 (≈ 6.94 µM) | 4 (≈ 13.9 µM) | 4 (≈ 13.9 µM) | – | – | – | – | –
CC(=O)NC[C@H]1CN(c2ccc(N3CCOCC3)c(F)c2)C(=O)O1 [LINEZOLID] | – | – | 4 (≈ 11.9 µM) | 1 (≈ 2.96 µM) | – | – | 2 | – | – | – | –
CN[C@H](CC(C)C)C(=O)N[C@H]1C(=O)N[C@@H](CC(N)=O)C(=O)N[C@H]2C(=O)N[C@H]3C(=O)N[C@H](C(=O)N[C@H](C(=O)O)c4cc(O)cc(O)c4-c4cc3ccc4O)[C@H](O)c3ccc(c(Cl)c3)Oc3cc2cc(c3O[C@@H]2O[C@H](CO)[C@@H](O)[C@H](O)[C@H]2O[C@H]2C[C@](C)(N)[C@H](O)[C@H](C)O2)Oc2ccc(cc2Cl)[C@H]1O [VANCOMYCIN] | 0.5 (≈ 0.345 µM) | – | > 16 | 0.5 (≈ 0.345 µM) | 4 (≈ 2.76 µM) | – | 1.1 | – | – | – | –
